Results reported in US11384063B2, “Modulators of estrogen receptor proteolysis and associated methods of use” (Arvinas Operations, Inc., priority 2017, dated 2022).
Structures can show the parent of a compound that is named as a salt.

Experiments:
ERα [1] = molecular target: T1, ERα (Homo sapiens, UniProt P03372); assay: Estrogen receptor-alpha (ERα) degradation assay in MCF7 cells using In-Cell Western assay; format: cell-based; design: assessed for their activity in degrading ERα in MCF-7 cells via western blot; endogenous in cells; host or cells: MCF7 cells; settings: ER-alpha degradation in MCF7 cells, 5 days of incubation
T1 sequence (P03372 1-595): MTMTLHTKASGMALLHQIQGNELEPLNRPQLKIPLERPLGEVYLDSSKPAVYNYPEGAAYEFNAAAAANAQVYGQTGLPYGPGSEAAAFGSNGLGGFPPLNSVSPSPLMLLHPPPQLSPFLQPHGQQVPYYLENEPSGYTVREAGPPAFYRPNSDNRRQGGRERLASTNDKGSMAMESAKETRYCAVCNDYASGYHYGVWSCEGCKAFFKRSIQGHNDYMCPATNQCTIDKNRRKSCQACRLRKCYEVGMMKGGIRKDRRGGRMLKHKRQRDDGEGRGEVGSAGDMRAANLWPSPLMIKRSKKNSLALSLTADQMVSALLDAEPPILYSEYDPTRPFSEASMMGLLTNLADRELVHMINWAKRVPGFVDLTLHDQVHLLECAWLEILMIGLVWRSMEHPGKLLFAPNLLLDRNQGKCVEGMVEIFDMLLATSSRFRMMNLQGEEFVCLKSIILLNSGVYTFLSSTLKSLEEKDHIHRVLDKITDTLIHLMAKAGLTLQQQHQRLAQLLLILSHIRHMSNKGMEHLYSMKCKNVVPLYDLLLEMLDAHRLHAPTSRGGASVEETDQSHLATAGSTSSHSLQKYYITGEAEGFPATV
Experimental: Estrogen Receptor-Alpha (ERα) Degradation Assay Using in-Cell Western™ Assay for Table 5.
Degradation of ERα by claimed compounds were determined in MCF7 cells using an In-Cell Western™ assay. Briefly, MCF7 cells were plated in 96-well plates (2000 cells per well in 100 μl media) and incubated at 37° C. under an atmosphere of 5% CO2 in a humidified incubator overnight. One-hundred (100) μI of media containing test compound (at 2x concentration) was added to the appropriate wells to provide 11 serially decreasing concentrations (top final concentration, 1 μM then 3-fold less for the next 10 concentrations); a vehicle control (DMSO) was also added for each compound. For each experiment, all compounds were assayed on duplicate plates. Cells were then incubated for 3 or 5 days in the above-mentioned environment. The assay was terminated by removal of media, a single wash with ice-cold PBS and the addition of 50 μl paraformaldehyde (PFA: 4% in PBS). After 15 minutes in PFA at room temperature, the cells were permeabilized in Tris-phosphate-buffered saline with Tween (0.1%) (TBST) supplemented with Triton X-100 (0.5%) for 15 minutes. Cells were then blocked in BSA (TBST with BSA, 3%) for one hour. Primary antibodies for the detection of ERa (rabbit monoclonal, 1:1000, Cell Signaling Technology Catalog #8644) and tubulin (mouse monoclonal, 1:5000, Sigma Catalog #T6074) in TBST with BSA (3%) were added. The cells were incubated overnight at 4° C. The cells were then washed thrice with TBST at room temperature and then incubated with anti-rabbit and anti-mouse fluorescently-labelled secondary antibodies (IRDye®; LI-COR; Lincoln, Nebr.) in LI-COR blocking buffer (Catalog #927-50000) for one hour at room temperature. Following 3 washes with TBST, the buffer was removed and the plates were read on an Odyssey® infrared imaging system (LI-COR®, Lincoln, Nebr.) at 700 nm and 800 nm. Using commercial software (ImageStudio™; LI-COR, Lincoln, Nebr.), the staining intensity for ERa and tubulin in each well was quantified and exported for analysis. For each data point, ERa intensity was normalized to tubulin intensity and for each compound all normalized intensity values were normalized to the vehicle control. DC50 and Dmax values were determined following a 4-parameter IC50 curve fit using ACAS dose response module (McNeil & Co Inc.).

ERα [2] = molecular target: T1, ERα; assay: ERE luciferase reporter gene assay in T47D-KBluc cells (target engagement); format: cell-based; design: T47D human breast cancer cells stably transfected with estrogen responsive element/promoter/luciferase reporter gene; host or cells: T47D-KBluc cells; settings: 10% FBS, 24 hours, Table 3 cereblon centric PROTACs, read-out: ER-α Luciferase IC50
Outline: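 PROTACs were tested at 12 concentrations from 300 nM down to 2 pM in 3-fold steps for 24 h on T47D-KBluc cells with a stable ERE-driven luciferase. Medium was RPMI with 10% FBS, measured at 10 pM estrogen. IC50 came from luminescence after lysis, in duplicate.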

| SMILES | DC50 (ERα [1]) | Dmax (ERα [1]) | IC50 (ERα [2]) |
| --- | --- | --- | --- |
| O=C1CCC(N2C(=O)c3ccc(N4CCN(C5CCN(CCOc6ccc(Oc7c(-c8ccc(Br)cc8)sc8cc(O)ccc78)cc6)CC5)CC4)cc3C2=O)C(=O)N1 (stereo not drawn) [Compound 183, 5-[4-[1-[2-[4-[2-(4-bromophenyl)-6-hydroxy-benzothiophen-3-yl]oxyphenoxy]ethyl]-4-piperidyl]piperazin-1-yl]-2-(2,6-dioxo-3-piperidyl)isoindoline-1,3-dione] | 10 to 100 nM | 50 to 75% | 2.5 nM |
| O=C1CCC(N2C(=O)c3ccc(N4CCN(CC5CCN(CCOc6ccc(Oc7c(-c8ccc(Br)cc8)sc8cc(O)ccc78)cc6)CC5)CC4)cc3C2=O)C(=O)N1 (stereo not drawn) [Compound 184, 5-[4-[1-[2-[4-[2-(4-bromophenyl)-6-hydroxy-benzothiophen-3-yl]oxyphenoxy]ethyl]-4-piperidylmethyl]piperazin-1-yl]-2-(2,6-dioxo-3-piperidyl)isoindoline-1,3-dione] | 10 to 100 nM | > 75% | 13.3 nM |
| O=C1CCC(N2C(=O)c3ccc(C4CCN(C5CCN(CCOc6ccc(Oc7c(-c8ccc(Br)cc8)sc8cc(O)ccc78)cc6)CC5)CC4)cc3C2=O)C(=O)N1 (stereo not drawn) [Compound 190, 5-(1′-(2-(4-((2-(4-bromophenyl)-6-hydroxybenzo[b]thiophen-3-yl)oxy)phenoxy)ethyl)-[1,4′-bipiperidin]-4-yl)-2-(2,6-dioxopiperidin-3-yl)isoindoline-1,3-dione Hydrochloride] | 1 to 10 nM | 50 to 75% | 11.6 nM |
| O=C1CCC(N2C(=O)c3ccc(N4CC(CN5CCCN(CCOc6ccc(Oc7c(-c8ccc(Br)cc8)sc8cc(O)ccc78)cc6)CC5)C4)cc3C2=O)C(=O)N1 (stereo not drawn) [Compound 191, 5-(3-((4-(2-(4-((2-(4-bromophenyl)-6-hydroxybenzo[b]thiophen-3-yl)oxy)phenoxy)ethyl)-1,4-diazepan-1-yl)methyl)azetidin-1-yl)-2-(2,6-dioxopiperidin-3-yl)isoindoline-1,3-dione] | 1 to 10 nM | 50 to 75% | 1.8 nM |
| O=C1CCC(N2Cc3cc(N4CCN(C5CCN(CCOc6ccc(Oc7c(-c8ccc(C(F)(F)F)cc8)sc8cc(O)ccc78)cc6)CC5)CC4)ccc3C2=O)C(=O)N1 (stereo not drawn) [Compound 192, 3-[5-[4-[1-[2-[4-[6-hydroxy-2-[4-(trifluoromethyl)phenyl]benzothiophen-3-yl]oxyphenoxy]ethyl]-4-piperidyl]piperazin-1-yl]-1-oxo-isoindolin-2-yl]piperidine-2,6-dione] | 10 to 100 nM | > 75% | 2.9 nM |
| O=C1CCC(N2Cc3c(ccc(N4CCN(C5CCN(CCOc6ccc(Oc7c(-c8ccc(C(F)(F)F)cc8)sc8cc(O)ccc78)cc6)CC5)CC4)c3F)C2=O)C(=O)N1 (stereo not drawn) [Compound 193, 3-[4-fluoro-5-[4-[1-[2-[4-[6-hydroxy-2-[4-(trifluoromethyl)phenyl]benzothiophen-3-yl]oxyphenoxy]ethyl]-4-piperidyl]piperazin-1-yl]-1-oxo-isoindolin-2-yl]piperidine-2,6-dione] | 1 to 10 nM | > 75% | 9.8 nM |
| O=C1CCC(N2Cc3cc(N4CCN(C5CCN(CCOc6ccc(Oc7c(-c8ccc(Br)cc8)sc8cc(O)ccc78)cc6)CC5)CC4)ccc3C2=O)C(=O)N1 (stereo not drawn) [Compound 194, 3-[5-[4-[1-[2-[4-[2-(4-bromophenyl)-6-hydroxybenzothiophen-3-yl]oxyphenoxy]ethyl]-4-piperidyl]piperazin-1-yl]-1-oxo-isoindolin-2-yl]piperidine-2,6-dione] | 1 to 10 nM | > 75% | 3.9 nM |
| O=C1CCC(N2Cc3cc(CCCCN4CCCN(CCOc5ccc(Oc6c(-c7ccc(Br)cc7)sc7cc(O)ccc67)cc5)CC4)ccc3C2=O)C(=O)N1 (stereo not drawn) [Compound 199, 3-[5-[4-[4-[2-[4-[2-(4-bromophenyl)-6-hydroxybenzothiophen-3-yl]oxyphenoxy]ethyl]-1,4-diazepan-1-yl]butyl]-1-oxo-isoindolin-2-yl]piperidine-2,6-dione] | 1 to 10 nM | 50 to 75% | 0.82 nM |
| O=C1CCC(N2Cc3c(ccc(N4CCN(CC5CCN(CCOc6ccc(Oc7c(-c8ccc(C(F)(F)F)cc8)sc8cc(O)ccc78)cc6)CC5)CC4)c3F)C2=O)C(=O)N1 (stereo not drawn) [Compound 201, 3-[4-fluoro-5-[4-[[1-[2-[4-[6-hydroxy-2-[4-(trifluoromethyl)phenyl]benzothiophen-3-yl]oxyphenoxy]ethyl]-4-piperidyl]methyl]piperazin-1-yl]-1-oxo-isoindolin-2-yl]piperidine-2,6-dione] | 10 to 100 nM | > 75% | 8.4 nM |

Further lines, results first:

| DC50 (ERα [1]) | Dmax (ERα [1]) | IC50 (ERα [2]) | SMILES |
| --- | --- | --- | --- |
| 1 to 10 nM | > 75% | 2.4 nM | O=C1CCC(N2C(=O)c3ccc(NCCCN4CCCN(CCOc5ccc(Oc6c(-c7ccc(Br)cc7)sc7cc(O)ccc67)cc5)CC4)cc3C2=O)C(=O)N1 (stereo not drawn) [Compound 178, 5-[3-[4-[2-[4-[2-(4-bromophenyl)-6-hydroxy-benzothiophen-3-yl]oxyphenoxy]ethyl]-1,4-diazepan-1-yl]propylamino]-2-(2,6-dioxo-3-piperidyl)isoindoline-1,3-dione] |
| 1 to 10 nM | 50 to 75% | 1 nM | O=C1CCC(N2Cc3cc(NCCCN4CCN(CCOc5ccc(Oc6c(-c7ccc(C(F)(F)F)cc7)sc7cc(O)ccc67)cc5)CC4)ccc3C2=O)C(=O)N1 (stereo not drawn) [Compound 179] |
| < 1 nM | > 75% | 0.22 nM | COc1ccc(-c2sc3cc(O)ccc3c2Oc2ccc(OCCN3CCN(CCCNc4ccc5c(c4)CN(C4CCC(=O)NC4=O)C5=O)CC3)cc2)cc1 (stereo not drawn) [Compound 180, 3-[5-[3-[4-[2-[4-[6-hydroxy-2-(4-methoxyphenyl)benzothiophen-3-yl]oxyphenoxy]ethyl]piperazin-1-yl]propylamino]-1-oxo-isoindolin-2-yl]piperidine-2,6-dione] |
| 1 to 10 nM | 50 to 75% | 2.2 nM | COc1ccc2c(Oc3ccc(OCCN4CCN(CCCNc5ccc6c(c5)CN(C5CCC(=O)NC5=O)C6=O)CC4)cc3)c(-c3ccc(O)cc3)sc2c1 (stereo not drawn) [Compound 181, 3-[5-[3-[4-[2-[4-[2-(4-hydroxyphenyl)-6-methoxy-benzothiophen-3-yl]oxyphenoxy]ethyl]piperazin-1-yl]propylamino]-1-oxo-isoindolin-2-yl]piperidine-2,6-dione] |
| 1 to 10 nM | > 75% | 1.9 nM | O=C1CC[C@H](N2Cc3cc(CCN4CCCN(CCCCOc5ccc(Oc6c(-c7ccc(Br)cc7)sc7cc(O)ccc67)cc5)CC4)ccc3C2=O)C(=O)N1 [Compound 182, (3S)-3-[5-[2-[4-[4-[4-[2-(4-bromophenyl)-6-hydroxy-benzothiophen-3-yl]oxyphenoxy]butyl]-1,4-diazepan-1-yl]ethyl]-1-oxo-isoindolin-2-yl]piperidine-2,6-dione] |
| 1 to 10 nM | 50 to 75% | 4.5 nM | O=C1CCC(N2C(=O)c3ccc(N4CCN(CC5CN(CCOc6ccc(Oc7c(-c8ccc(Br)cc8)sc8cc(O)ccc78)cc6)C5)CC4)cc3C2=O)C(=O)N1 (stereo not drawn) [Compound 185, 5-[4-[[1-[2-[4-[2-(4-bromophenyl)-6-hydroxy-benzothiophen-3-yl]oxyphenoxy]ethyl]azetidin-3-yl]methyl]piperazin-1-yl]-2-(2,6-dioxo-3-piperidyl)isoindoline-1,3-dione] |
